Common to all, as to assay type: in vivo, Female juvenile domestic swine
Experiment [1] concerns acute regional myocardial ischemia and reperfusion (LAD occlusion). The experiment is described as follows: Echocardiographic LV ejection fraction.
The next experiment has as its system Caspase 3. The experiment in a line: Western blotting of infarct border area: Caspase 3. The note with it: infarct border area after 2 h reperfusion, p=0.007 vs saline. An excerpt:
Interventional Coronary and Surgical Procedures: A 6F Hockey stick guide catheter cannulated the left main coronary artery. The TGT wire, flushed with heparin, was positioned in the distal left anterior descending (LAD) artery. After a midline sternotomy acute regional myocardial ischemia was induced by occluding the mid portion of the LAD with a surgical suture. Fluoroscopy ensured the suture was above the infusion ports of the TGT wire with distal TIMI 0 flow. Lidocaine was given as a bolus and infusion at the onset of ischemia and for the remainder of the experiment. TGT injection was performed at the end of a 30 minute ischemic period after which the suture was removed to allow reperfusion. Restoration of TIMI 3 flow was documented by cine-angiography. Animals were sacrificed after 2 hours of reperfusion and the hearts were harvested for immunohistochemistry. Western Blotting: After cardiac harvest the infarct border area was immediately frozen in liquid nitrogen. […] Supernatant protein concentration was measured using a BCA assay kit (Pierce Laboratories). […] After 3 TBST washings the immunocomplexes were developed using an enhanced HPO/luminol chemiluminescence reaction, and recorded photographically (Hyper film ECL; Amersham) by 10 s to 3 min exposure. […] Quantification was performed using scanning densitometry with image J software.
In general terms: Immunoblotting shows a protein as a band on a membrane.

In a further experiment the test system is apoptosis. The experiment in a line: TUNEL staining for apoptosis in heart tissue sections. Particulars: heart tissue after 2 h reperfusion; non-discriminatory vs saline.
The test system of experiment [2] is acute regional myocardial ischemia and reperfusion (LAD occlusion). The experiment in a line: Hemodynamic assessment (rate pressure product) in swine LAD ischemia-reperfusion with Trans Guide wire Therapy. Particulars: for rate pressure product (RPP), Pre-sacrifice: after 2 h reperfusion, chloramphenicol 10 mg TGT plus 40 mg/Kg IV just prior to reperfusion, p=0.02 vs saline. The procedure: (§1) Methods: Female juvenile pigs (n=14) were used. All animals received 250 mg of aspirin and 100 U/Kg of heparin IV. Tying the mid Left Anterior Descending Artery (“LAD”) after distal TGT (Trans Guide wire Therapy) wire placement induced acute myocardial ischemia. The TGT system consisted of a 0.014 inch nitinol torquable guide wire and removable stopcock. The distal 30 mm tip was flexible and radio-opaque. Immediately proximal to the tip were delivery holes to facilitate TGT delivery. TGT was delivered after 30 minutes of ischemia. The distal coronary vascular bed was visualized by injection with radiographic contrast (n=2) and Evans blue (n=2). […] Suture removal allowed 2 hours of reperfusion prior to sacrifice. Hemodynamics expressed as the heart rate blood pressure product (RPP) was assessed continuously. Echocardiographic LV ejection fraction (LVEF) was measured at baseline, end of ischemia (pre-TGT) and pre-sacrifice. Device success was defined as successful TGT delivery.
Animal Preparation: Female juvenile domestic swine, weight 30-50 kg, were studied. […] Anaesthesia was induced with an intramuscular injection of ketamine (20 mg/kg) followed by inhaled isoflurane (0.5-2.0%). After general anaesthesia the femoral artery was cannulated. A pulmonary artery cannula was positioned via the right internal jugular vein. All animals received 250 mg of IV aspirin and 100 U/Kg units of heparin intravenously to achieve an ACT above 250 s.
(§2) Interventional Coronary and Surgical Procedures: A 6F Hockey stick guide catheter cannulated the left main coronary artery. The TGT wire, flushed with heparin, was positioned in the distal left anterior descending (LAD) artery. After a midline sternotomy acute regional myocardial ischemia was induced by occluding the mid portion of the LAD with a surgical suture. Fluoroscopy ensured the suture was above the infusion ports of the TGT wire with distal TIMI 0 flow. Lidocaine was given as a bolus and infusion at the onset of ischemia and for the remainder of the experiment. TGT injection was performed at the end of a 30 minute ischemic period after which the suture was removed to allow reperfusion. Restoration of TIMI 3 flow was documented by cine-angiography. Animals were sacrificed after 2 hours of reperfusion and the hearts were harvested for immunohistochemistry.
Hemodynamic Assessment: There was continuous measurement of hemodynamic parameters. Cardiac output was measured immediately before and after ischemia and pre-sacrifice. Hemodynamic stability and contractility were supported medically by IV dopamine, and epinephrine to maintain MAP above 50 mmg. Boluses of atropine (1 mg) and lidocaine (100 mg) were given as appropriate for treatment of arrhythmias. […] Each administration of these drugs was recorded as 1 arbitrary unit. […]

Experiment [3] has the same test system. The experiment is described as follows: Supportive drug therapy required during ischemia-reperfusion (arbitrary units). The note with it: chloramphenicol 10 mg TGT plus 40 mg/Kg IV. The procedure:
as §1, §2
Hemodynamic Assessment: There was continuous measurement of hemodynamic parameters. Cardiac output was measured immediately before and after ischemia and pre-sacrifice. Hemodynamic stability and contractility were supported medically by IV dopamine, and epinephrine to maintain MAP above 50 mmg. Boluses of atropine (1 mg) and lidocaine (100 mg) were given as appropriate for treatment of arrhythmias. IV calcium and bicarbonate were given in appropriate doses during cardiopulmonary resuscitation. Each administration of these drugs was recorded as 1 arbitrary unit.
The latter was prepared as 10 mg in 0.5 cc of saline for TGT in addition to 40 mg/Kg IV. Injections were performed just prior to reperfusion.

For experiment [4] the test system is unchanged. The experiment in a line: Survival of the reperfusion period. Particulars: of 5 chloramphenicol TGT treated animals, to sacrifice at 2 h. The method, then: as §1
Interventional Coronary and Surgical Procedures: A 6F Hockey stick guide catheter cannulated the left main coronary artery. The TGT wire, flushed with heparin, was positioned in the distal left anterior descending (LAD) artery. After a midline sternotomy acute regional myocardial ischemia was induced by occluding the mid portion of the LAD with a surgical suture. […]

The mark [5] stands for this setting: each administration recorded as 1 arbitrary unit, group sum.

Marks after values point to notes of the source that are not given here.

Consider `O=C(N[C@H](CO)[C@H](O)c1ccc([N+](=O)[O-])cc1)C(Cl)Cl` [chloramphenicol], for which the “LV ejection fraction, end of ischemia” value in experiment [1] (after 30 minute ischemia, pre-TGT, chloramphenicol TGT group) was determined as 27.3%+/−3.8. Also, in experiment [1] (after 2 h reperfusion, chloramphenicol 10 mg TGT plus 40 mg/Kg IV, p<0.001 vs end of ischemia), the “LV ejection fraction, pre-sacrifice (after reperfusion)” value came out at 43.3%+/−11.4. For the same compound, the “caspase-3 band intensity by densitometry” value in the experiment with Caspase 3 amounted to 346±110. Further, the TUNEL staining result in the experiment with apoptosis was “weakly positive”. Further, the “rate pressure product (RPP), Pre-sacrifice” value in experiment [2] was 3720.0 (+/−510.2). For the same compound, in experiment [2] (listed as Chloramphenicol), the “rate pressure product (RPP), Pre-sacrifice” value is recorded as 3720.0 +/− 510.2*. In addition, the “rate pressure product (RPP), Baseline” value in experiment [2] (baseline, before ischemia and before TGT, chloramphenicol TGT group (n=5)) is 3980.8 +/− 594.5. The “rate pressure product (RPP), End of ischemia” value in experiment [2] (end of 30 min ischemia, pre-TGT, chloramphenicol TGT group (n=5)) is reported as 2969.5 +/− 687.2. Besides, in experiment [3] (setting [5]), the “supportive therapy: Atropine” value was 2.5 arbitrary units, the “supportive therapy: Bicarbonate” value turned out to be 1 arbitrary units, the “supportive therapy: Dopamine” value turned out to be 1 arbitrary units and the “supportive therapy: Epinephrine” value came out at 1 arbitrary units. Moreover, in experiment [3] (setting [5]), the “supportive therapy: Lidocaine” value worked out at 4.5 arbitrary units and the “supportive therapy: calcium” value was found to be 0 arbitrary units. In addition, in experiment [3] (mean (+/-), p=0.028 vs saline), the “supportive therapy / intravenous inotrope support, mean” value is on record as 1.67 (+/−1.6) arbitrary units. In addition, the “supportive therapy: Total” value in experiment [3] (sum over all support drugs) is 10 arbitrary units. Moreover, the “animals that survived the period of reperfusion” value in experiment [4] came out at 5.
